# According to ChEMBL document CHEMBL1201862, “PubChem BioAssay data set” (2004):
#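 Tested at 5 concentrations; 48 h exposure; 96-well plates; endpoints linearly interpolated, else capped at highest concentration. Abbreviation: GI50, concentration required for 50% inhibition of growth.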 Calls of active or inactive are those of the source. Rule as the data show it: active = GI50 up to about 1.1 µM and inactive = higher.
# What was measured:
# Experiment in all cases: DTP human tumour cell line panel, 48 h
# [1] = test system: KM12
# [2] = test system: SR
# [3] = test system: A498
# [4] = test system: SK-MEL-28
# [5] = test system: DU-145
# [6] = test system: CCRF-CEM
# [7] = test system: SF-539
# [8] = test system: HOP-62
# [9] = test system: UO-31
# [10] = test system: K562
# [11] = test system: 786-0
# [12] = test system: UACC-257
# [13] = test system: HT-29
# [14] = test system: MCF7
# [15] = test system: OVCAR-3
# [16] = test system: HL-60
# [17] = test system: OVCAR-8
# [18] = test system: IGROV-1
# [19] = test system: CAKI-1
# [20] = test system: NCI-H460
# [21] = test system: UACC-62
# [22] = test system: MDA-MB-435
# [23] = test system: SK-MEL-2
# [24] = test system: SNB-19
# [25] = test system: SF-295
# [26] = test system: MOLT-4
# [27] = test system: COLO 205
# [28] = test system: Hs-578T
# [29] = test system: HCT-116
# [30] = test system: NCI/ADR-RES
# [31] = test system: SK-MEL-5
# [32] = test system: LOX IMVI
# [33] = test system: SN12C
# [34] = test system: PC-3
# [35] = test system: OVCAR-5
# [36] = test system: T47D
# [37] = test system: SNB-75
# [38] = test system: SW-620
# [39] = test system: SF-268
# [40] = test system: U-251
# [41] = test system: OVCAR-4
# [42] = test system: RPMI-8226
# [43] = test system: A549
# [44] = test system: NCI-H522
# [45] = test system: EKVX
# [46] = test system: SK-OV-3
# [47] = test system: TK-10
# [48] = test system: BT-549
# [49] = test system: HCT-15
# [50] = test system: RXF 393
# [51] = test system: M14
smiles,measurement,setting,value
Cc1ccnc(NC(=S)Nc2cccc(Cl)c2)c1,GI50,[1],> 100 µM (inactive)
same,GI50,[2],> 100 µM (inactive)
same,GI50,[3],> 100 µM (inactive)
same,GI50,[4],> 100 µM (inactive)
same,GI50,[5],> 100 µM (inactive)
same,GI50,[6],> 100 µM (inactive)
same,GI50,[7],> 100 µM (inactive)
same,GI50,[8],78.9 µM (inactive)
same,GI50,[9],> 100 µM (inactive)
same,GI50,[10],> 100 µM (inactive)
same,GI50,[11],> 100 µM (inactive)
same,GI50,[12],> 100 µM (inactive)
same,GI50,[13],> 100 µM (inactive)
same,GI50,[14],> 100 µM (inactive)
same,GI50,[15],> 100 µM (inactive)
same,GI50,[16],> 100 µM (inactive)
same,GI50,[17],> 100 µM (inactive)
same,GI50,[18],10.5 µM (inactive)
same,GI50,[19],> 100 µM (inactive)
same,GI50,[20],> 100 µM (inactive)
same,GI50,[21],> 100 µM (inactive)
same,GI50,[22],> 100 µM (inactive)
same,GI50,[23],> 100 µM (inactive)
same,GI50,[24],> 100 µM (inactive)
same,GI50,[25],> 100 µM (inactive)
same,GI50,[26],> 100 µM (inactive)
same,GI50,[27],> 100 µM (inactive)
same,GI50,[28],74.1 µM (inactive)
same,GI50,[29],> 100 µM (inactive)
same,GI50,[30],> 100 µM (inactive)
same,GI50,[31],> 100 µM (inactive)
same,GI50,[32],> 100 µM (inactive)
same,GI50,[33],> 100 µM (inactive)
same,GI50,[34],> 100 µM (inactive)
same,GI50,[35],> 100 µM (inactive)
same,GI50,[36],> 100 µM (inactive)
same,GI50,[37],23.1 µM (inactive)
same,GI50,[38],> 100 µM (inactive)
same,GI50,[39],> 100 µM (inactive)
same,GI50,[40],> 100 µM (inactive)
same,GI50,[41],> 100 µM (inactive)
same,GI50,[42],> 100 µM (inactive)
same,GI50,[43],> 100 µM (inactive)
same,GI50,[44],20 nM (active)
same,GI50,[45],12.4 µM (inactive)
same,GI50,[46],> 100 µM (inactive)
same,GI50,[47],> 100 µM (inactive)
same,GI50,[48],> 100 µM (inactive)
same,GI50,[49],> 100 µM
same,GI50,[50],> 100 µM (inactive)
same,GI50,[51],> 100 µM (inactive)
